In paper PMC12084410, “Reconstruction of the ancient cyanobacterial proto-circadian clock system KaiABC” (The EMBO Journal, 2025):

Tests used:
KaiC [1] = target: T1, KaiC (Synechococcus elongatus, UniProt Q79PF4, S229T/T240N); test: HPLC ADP production (ATPase); format: biochemical; conditions: 1 mM ATP, 5 mM MgCl2, 150 mM NaCl, pH 8.0, 25 C
T1 construct: full-length (CI 1-268, CII 269-519), pGEX-6P-1 (GST) in E. coli BL21, purified, hexamer

KaiC [2] = target: T2, KaiC (Synechococcus elongatus, UniProt Q79PF4); test: HPLC ADP production (ATPase); format: biochemical; conditions: 1 mM ATP, 5 mM MgCl2, 150 mM NaCl, pH 8.0, 25 C
T2 construct: full-length (CI 1-268, CII 269-519), pGEX-6P-1 (GST) in E. coli BL21, purified, hexamer
T2 sequence (Q79PF4 1-519): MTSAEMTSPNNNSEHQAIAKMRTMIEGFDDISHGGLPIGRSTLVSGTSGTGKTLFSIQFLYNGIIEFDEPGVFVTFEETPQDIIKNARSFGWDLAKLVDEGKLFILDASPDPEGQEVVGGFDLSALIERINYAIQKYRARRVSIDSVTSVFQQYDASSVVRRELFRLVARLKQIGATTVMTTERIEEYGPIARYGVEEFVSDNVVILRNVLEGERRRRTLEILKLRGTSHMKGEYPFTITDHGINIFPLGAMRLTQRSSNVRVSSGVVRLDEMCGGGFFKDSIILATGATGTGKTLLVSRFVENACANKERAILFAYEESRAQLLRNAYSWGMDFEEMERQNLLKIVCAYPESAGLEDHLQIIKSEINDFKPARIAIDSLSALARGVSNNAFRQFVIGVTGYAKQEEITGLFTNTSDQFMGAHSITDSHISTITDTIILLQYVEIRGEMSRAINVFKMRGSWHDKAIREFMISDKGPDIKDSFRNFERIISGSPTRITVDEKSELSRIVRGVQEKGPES

T1 sequence (Q79PF4 whole entry S229T/T240N): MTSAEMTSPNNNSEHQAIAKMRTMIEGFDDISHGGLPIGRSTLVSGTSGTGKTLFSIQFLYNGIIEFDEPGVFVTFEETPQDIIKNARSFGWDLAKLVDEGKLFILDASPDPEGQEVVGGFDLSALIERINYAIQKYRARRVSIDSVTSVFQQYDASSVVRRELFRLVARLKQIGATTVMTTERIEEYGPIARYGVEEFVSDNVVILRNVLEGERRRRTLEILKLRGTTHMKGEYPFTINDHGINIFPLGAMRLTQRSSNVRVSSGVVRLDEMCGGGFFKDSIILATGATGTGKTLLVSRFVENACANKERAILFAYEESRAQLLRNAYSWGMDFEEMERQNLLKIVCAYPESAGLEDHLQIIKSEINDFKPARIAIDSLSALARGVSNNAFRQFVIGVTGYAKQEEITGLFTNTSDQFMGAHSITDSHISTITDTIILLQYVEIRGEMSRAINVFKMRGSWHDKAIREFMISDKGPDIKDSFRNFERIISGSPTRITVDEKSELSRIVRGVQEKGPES

Nc1ncnc2c1ncn2[C@@H]1O[C@H](COP(=O)(O)OP(=O)(O)OP(=O)(O)O)[C@@H](O)[C@H]1O [ATP]
HPLC ADP production (ATPase) (KaiC [1]): the activity of ATP hydrolysis was significantly repressed in the double mutants | HPLC ADP production (ATPase) (KaiC [2]): ATPase activity of anKaiC was significantly lower than that of KaiC
